Results as given in patent US10596150B2, “Antifungal agents” (F2G LIMITED, priority 2014, dated 2020).
In brackets after ≈: the same amount, converted by molar mass.

What was measured:
[1] = test system: Scedosporium prolifican 1121; assay: Minimum Inhibitory Concentration (MIC), RPMI medium; assay type: cell-based
Protocol: (§1) Between 1 and 5 mgs of the compound were accurately weighed out into a sterile Eppendorf tube. The compound was dissolved in DMSO to give a solution containing 5 mg/mL. Tubes were stored at −20° C. until required.
(§2) On the day of testing thawed solutions were vortex mixed to ensure homogeneity. 30 μL of solution was removed and added to 570 μL of sterile water in a separate sterile Eppendorf. The thoroughly mixed solution was used to prepare a series of doubling dilutions in water, in a deep well plate. Thirteen replicate plates were prepared using a Minitrak by aspirating 20 μL from each well into eleven clear polystyrene 96 well plates.
(§3) Spores of Aspergillus and Scedosporium were harvested from cultures grown on Sabarauds agar for 5 days, and resuspended in PBS/Tween 80 to approx 1×10^7 cfu/mL. Each organism suspension was diluted in RPMI medium, containing 2% glucose and 0.135 M MOPS buffer (pH 7.0) to 0.5-2×10^4 cfu/mL. 80 μL of an organism suspension was added to each well of the plate containing drug dilutions.
(§4) This produced MIC plates with a drug range 50-0.05 mg/L and organism inocula of 1-2×10^4 cfu/mL. All plates were incubated for 24-48 h at 35° C. Growth was assessed by monitoring the optical density at 485 nm for each well. The MIC of a compound is the lowest drug concentration that inhibits growth of an organism by >80% compared with a drug free control.

Scedos apiospermum 1124 = assay: as above; assay type: cell-based; details: Scedosporium apiospermum
Protocol: as §1, §2, §3, §4

A. terreus = assay: as above; assay type: cell-based; details: Aspergillus terreus, >80% growth inhibition
Protocol: as §1, §2, §3, §4

[2] = test system: Scedosporium prolificans 206; assay: as above; assay type: cell-based; details: Lomentospora prolificans
Protocol: as §1, §2, §3, §4

[3] = test system: Scedosporium prolifican 15849; assay: as above; assay type: cell-based
Protocol: as §1, §2, §3, §4

[4] = test system: Scedosporium prolifican 8353; assay: as above; assay type: cell-based
Protocol: as §1, §2, §3, §4

[5] = test system: Scedosporium apiospermum 8353; assay: as above; assay type: cell-based
Protocol: as §1, §2, §3, §4

[6] = test system: Scedosporium prolifican 451; assay: as above; assay type: cell-based
Protocol: as §1, §2, §3, §4

[7] = test system: Scedosporium apiospermum 451; assay: as above; assay type: cell-based
Protocol: as §1, §2, §3, §4

A. fumigatus = assay: as above; assay type: cell-based; details: Aspergillus fumigatus, >80% growth inhibition
Protocol: as §1, §2, §3, §4

[8] = test system: Scedosporium prolificans 18389; assay: as above; assay type: cell-based; details: Lomentospora prolificans
Protocol: as §1, §2, §3, §4

[9] = test system: Scedosporium apiospermum 7935; assay: as above; assay type: cell-based
Protocol: as §1, §2, §3, §4

[10] = test system: Scedosporium prolifican 15848; assay: as above; assay type: cell-based
Protocol: as §1, §2, §3, §4

A. flavus = assay: as above; assay type: cell-based; details: Aspergillus flavus, >80% growth inhibition
Protocol: as §1, §2, §3, §4

A. niger = assay: as above; assay type: cell-based; details: Aspergillus niger, >80% growth inhibition
Protocol: as §1, §2, §3, §4

[11] = test system: Scedosporium prolifican 4883; assay: as above; assay type: cell-based
Protocol: as §1, §2, §3, §4

[12] = test system: Scedosporium prolifican 7935; assay: as above; assay type: cell-based
Protocol: as §1, §2, §3, §4

[13] = test system: Scedosporium prolifican 201; assay: as above; assay type: cell-based
Protocol: as §1, §2, §3, §4

A. fumigatus 210 = assay: as above; assay type: cell-based; details: Aspergillus fumigatus, >80% growth inhibition
Protocol: as §1, §2, §3, §4

A. terreus 49 = assay: as above; assay type: cell-based; details: Aspergillus terreus, >80% growth inhibition
Protocol: as §1, §2, §3, §4

[14] = test system: Scedosporium apiospermum 15848; assay: as above; assay type: cell-based
Protocol: as §1, §2, §3, §4

[15] = test system: Scedosporium apiospermum 13486; assay: as above; assay type: cell-based
Protocol: as §1, §2, §3, §4

[16] = test system: Scedosporium prolifican 13486; assay: as above; assay type: cell-based
Protocol: as §1, §2, §3, §4

[17] = test system: Scedosporium prolificans 6322; assay: as above; assay type: cell-based; details: Lomentospora prolificans
Protocol: as §1, §2, §3, §4

[18] = test system: Scedosporium apiospermum 4883; assay: as above; assay type: cell-based
Protocol: as §1, §2, §3, §4

[19] = test system: Scedosporium species 15849; assay: as above; assay type: cell-based
Protocol: as §1, §2, §3, §4

L. prolificans FMR 3569 = assay: Lomentospora prolificans FMR 3569 disseminated infection model (survival, tissue burden); assay type: in vivo, Male OF-1 mice; details: VRC 25 mg/kg p.o. QD; Example 1 20 mg/k p.o. BID; from day 1 after challenge for 9 days
Protocol: L. prolificans (also known as Scedosporium prolificans or S. prolificans) was grown on Potato Dextrose Agar (PDA) for 5 days at 35° C. On the day of infection, cultures were flooded with sterile saline and filtered through sterile gauze to remove clumps of conidia and hyphae. The resulting suspensions were adjusted by haemocytometer count and by serial plating to confirm viability.
Male OF-1 mice with a mean weight of 30 g were used in the experiment. Mice were housed in standard boxes with food and water ad libitum.
Mice were rendered neutropenic two days prior to infection by an intraperitoneal (i.p.) injection of 200 mg/kg of cyclophosphamide, and once every 5 days thereafter (Clemons et al, 2005).
Mice were challenged with 5×10^4 CFU/animal of L. prolificans FMR 3569, in a volume of 0.2 ml of sterile saline into the lateral tail vein.
Treatments consisted of (a) voriconazole (VRC) (Vfend; Pfizer S. A., Madrid, Spain) at 25 mg/kg p.o, by gavage QD; (b) Example 1 at 20 mg/k, p.o, by gavage BID; and (c) no treatment. From 3 days before infection, mice that received VRC were given grapefruit juice instead of water (Sugar & Liu, 2001). All treatments began 1 day after challenge, and the therapy lasted for 9 days. Controls received no treatment.
For survival studies groups of 10 mice were randomly established for each therapy. Mortality was recorded daily until the end of the experiment. […]

S. aurantiacum = assay: Analogous MIC experiments; assay type: cell-based
Protocol: as §1, §2, §3, §4

S. dehoogii = assay: Analogous MIC experiments; assay type: cell-based
Protocol: as §1, §2, §3, §4

S. boydii = assay: Analogous MIC experiments; assay type: cell-based
Protocol: as §1, §2, §3, §4

Structure (SMILES): Cc1cc(-c2ccccc2)c(C(=O)C(=O)Nc2ccc(N3CCN(c4ncc(F)cn4)CC3)cc2)n1C [Example 1, 2-(1,5-dimethyl-3-phenyl-1H-pyrrol-2-yl)-N-(4-(4-(5-fluoropyrimidin-2-yl)piperazin-1-yl)phenyl)-2-oxoacetamide]
- MIC [1]: ≤ 0.005 µg/mL
- MIC (Scedos apiospermum 1124): ≤ 0.005 µg/mL
- MIC (A. terreus): ≤ 0.005 µg/mL
- MIC [2]: 0.02 to 0.04 µg/mL (≈ 0.0401 to 0.0802 µM)
- MIC [3]: 0.04 to 0.06 µg/mL (≈ 0.0802 to 0.12 µM)
- MIC [4]: 0.005 to 0.01 µg/mL (≈ 0.01 to 0.0201 µM)
- MIC [5]: 0.005 to 0.01 µg/mL (≈ 0.01 to 0.0201 µM)
- MIC [6]: 0.005 to 0.01 µg/mL (≈ 0.01 to 0.0201 µM)
- MIC [7]: 0.005 to 0.01 µg/mL (≈ 0.01 to 0.0201 µM)
- MIC (A. fumigatus): 0.01 to 0.02 µg/mL (≈ 0.0201 to 0.0401 µM)
- MIC [8]: 0.01 to 0.02 µg/mL (≈ 0.0201 to 0.0401 µM)
- MIC [9]: 0.01 to 0.02 µg/mL (≈ 0.0201 to 0.0401 µM)
- MIC [10]: 0.02 to 0.04 µg/mL (≈ 0.0401 to 0.0802 µM)
- MIC (A. flavus): 0.005 to 0.01 µg/mL (≈ 0.01 to 0.0201 µM)
- MIC (A. niger): 0.01 to 0.02 µg/mL (≈ 0.0201 to 0.0401 µM)
- MIC [11]: 0.01 to 0.02 µg/mL (≈ 0.0201 to 0.0401 µM)
- MIC [12]: 0.01 to 0.02 µg/mL (≈ 0.0201 to 0.0401 µM)
- MIC [13]: 0.02 to 0.04 µg/mL (≈ 0.0401 to 0.0802 µM)
- MIC (A. fumigatus 210): 0.01 to 0.02 µg/mL (≈ 0.0201 to 0.0401 µM)
- MIC (A. terreus 49): ≤ 0.005 µg/mL
- MIC [14]: 0.02 to 0.04 µg/mL (≈ 0.0401 to 0.0802 µM)
- MIC Scedosporium apiospermum 13486 [15]: D (A grade of D represents an MIC of greater than 0.02 mg/L but less than or equal to 0.04 mg/L)
- MIC ([15]; Scedosporium apiospermum, 13486): 0.02 to 0.04 µg/mL (≈ 0.0401 to 0.0802 µM)
- MIC [16]: 0.02 to 0.04 µg/mL (≈ 0.0401 to 0.0802 µM)
- MIC [17]: 0.02 to 0.04 µg/mL (≈ 0.0401 to 0.0802 µM)
- MIC [18]: 0.01 to 0.02 µg/mL (≈ 0.0201 to 0.0401 µM)
- MIC [19]: 0.04 to 0.06 µg/mL (≈ 0.0802 to 0.12 µM)
- survival rates compared with the control (FIG. 7) (L. prolificans FMR 3569): improved survival rates
- antifungal activity against S. aurantiacum (S. aurantiacum): good antifungal activity
- antifungal activity against S. dehoogii (S. dehoogii): good antifungal activity
- antifungal activity against S. boydii (S. boydii): good antifungal activity
